Laboratory results taken from ChEMBL document CHEMBL4038293, “Synthesis and SAR studies of 3,6-disubstituted indazole derivatives as potent hepcidin production inhibitors” (Bioorg Med Chem Lett, 2017).
Calls of active or inactive are those of the source. The calls are words filed in the database; no cut-off is given here.

Test system: not listed separately
Test: Inhibition of BMP6/hemojuvelin signalling pathway in human HepG2 cells assessed as reduction in hepcidin mRNA expression
Assay type: cell-based
Conditions: not given
For CN(C)CCOc1ccc(C(=O)Nc2n[nH]c3cc(-c4ccc(O)cc4)ccc23)cc1, the IC50 was 160 nM.
CN1CCN(c2ccc(C(=O)Nc3n[nH]c4cc(-c5ccc(O)cc5)ccc34)cc2)CC1 showed an IC50 of 85 nM.
Work on O=C(Nc1n[nH]c2cc(-c3ccc(O)cc3)ccc12)c1ccc(OCCN2CCCCC2)cc1 yielded an IC50 of 120 nM.
In the case of O=C(Nc1n[nH]c2cc(-c3ccc(O)cc3)ccc12)NC1CC1, the IC50 is reported as 940 nM.
O=C(Nc1n[nH]c2cc(-c3ccc(O)cc3)ccc12)c1ccccc1 gave an IC50 of 470 nM.
Compound COC(=O)c1ccc(C(=O)Nc2n[nH]c3cc(-c4ccc(O)cc4)ccc23)cc1 has an IC50 of 1100 nM.
CS(=O)(=O)Nc1ccc(-c2ccc3c(NC(=O)C4CC4)n[nH]c3c2)cc1 gave an IC50 of over 30000 nM.
With Nc1n[nH]c2cc(-c3ccc(O)cc3)ccc12 the IC50 was 1000 nM.
For O=C(Nc1n[nH]c2cc(-c3ccc(O)cc3)ccc12)C1CC1, the IC50 was 400 nM.
With CC(=O)Nc1n[nH]c2cc(-c3ccc(O)cc3)ccc12 the IC50 was 1100 nM.
O=C(Nc1n[nH]c2cc(-c3ccccc3O)ccc12)C1CC1 gave an IC50 of over 30000 nM.
Compound O=C(Nc1n[nH]c2cc(-c3ccc(O)cc3)ccc12)c1ccc(Cl)cc1 has an IC50 of 980 nM.
COc1cccc(C(=O)Nc2n[nH]c3cc(-c4ccc(O)cc4)ccc23)c1 gave an IC50 of 700 nM.
Work on O=C(Nc1n[nH]c2cc(Cc3ccc(O)cc3)ccc12)C1CC1 yielded an IC50 of over 30000 nM.
O=C(Nc1n[nH]c2cc(-c3cccc(O)c3)ccc12)C1CC1 gave an IC50 of 4900 nM.
CN(C)c1ccc(C(=O)Nc2n[nH]c3cc(-c4ccc(O)cc4)ccc23)cc1 showed an IC50 of 330 nM.
O=C(Nc1n[nH]c2cc(-c3ccc(O)cc3)ccc12)C1CCCCC1 showed an IC50 of 930 nM.
O=C(Nc1n[nH]c2ccc(-c3ccc4c(c3)CNC4)cc12)C1CC1 gave an IC50 of 3100 nM.
For O=C(Nc1n[nH]c2cc(-c3ccc(CO)cc3)ccc12)C1CC1, the IC50 was 1400 nM.
COc1ccc(C(=O)Nc2n[nH]c3cc(-c4ccc(O)cc4)ccc23)cc1 gave an IC50 of 420 nM.
With O=C(Nc1n[nH]c2cc(-c3ccc(O)cc3)ccc12)c1ccc(OCCN2CCOCC2)cc1 the IC50 was 130 nM.
Compound O=C(O)c1ccc(-c2ccc3c(NC(=O)C4CC4)n[nH]c3c2)cc1 has an IC50 of over 10000 nM.
With O=C(NC1CC1)c1n[nH]c2cc(-c3ccc(O)cc3)ccc12 the IC50 was 4200 nM.
In the case of COc1ccccc1C(=O)Nc1n[nH]c2cc(-c3ccc(O)cc3)ccc12, the IC50 is reported as over 30000 nM.
O=C(Nc1n[nH]c2cc(C3=CCC(O)CC3)ccc12)C1CC1 (centres undefined) gave an IC50 of over 30000 nM.
Compound Oc1ccc(-c2ccc3cn[nH]c3c2)cc1 has an IC50 of over 3000 nM.
Work on Oc1ccc(-c2ccc3c(NCC4CC4)n[nH]c3c2)cc1 yielded an IC50 of 1600 nM.
In the case of O=S(=O)(Nc1n[nH]c2cc(-c3ccc(O)cc3)ccc12)C1CC1, the IC50 is reported as over 10000 nM.
With O=C(Nc1[nH]nc2cc(-c3ccc(O)nc3)ccc12)C1CC1 the IC50 was over 30000 nM.
In the case of Nc1ccc(-c2ccc3c(NC(=O)C4CC4)n[nH]c3c2)cc1, the IC50 is reported as 4500 nM.

Organism: Homo sapiens
Test: Inhibition of BMP6/hemojuvelin signalling pathway in human HepG2 cells assessed as reduction in hepcidin mRNA expression at 30 uM
Assay type: cell-based
Conditions: not given
With O=C(Nc1n[nH]c2cccc(-c3ccccc3)c12)C1CC1 the inhibition was 8%.
O=C(Nc1n[nH]c2ccc(-c3ccccc3)cc12)C1CC1 showed an inhibition of -4%.
For O=C(Nc1n[nH]c2cc(-c3ccccc3)ccc12)C1CC1, the inhibition was 23%.

Test system: not listed separately
Test: Lipophilicity, log D of the compound
Assay type: physicochemical
Conditions: octanol/water
Compound O=C(Nc1n[nH]c2cc(-c3ccc(O)cc3)ccc12)c1ccc(OCCN2CCOCC2)cc1 has a logD of 3.4.

Test system: not listed separately
Test: Metabolic stability in mouse liver microsomes assessed as compound remaining at 0.5 mg/mL after 0.5 hrs
Assay type: ADME, microsome
Conditions: read-out: Stability
O=C(Nc1n[nH]c2cc(-c3ccc(O)cc3)ccc12)c1ccc(OCCN2CCOCC2)cc1 showed a remaining at 0.5 h of 89%.

Test system: not listed separately
Test: Cmax in C57BL/6J mouse at 30 mg/kg, ip
Assay type: ADME, organism-based
Parameters: dose 30 mg/kg, route intraperitoneal
Conditions: in vivo
O=C(Nc1n[nH]c2cc(-c3ccc(O)cc3)ccc12)c1ccc(OCCN2CCOCC2)cc1 showed a Cmax of 2640 ng/mL.

Test system: not listed separately
Test: Tmax in C57BL/6J mouse at 30 mg/kg, ip
Assay type: ADME, organism-based
Conditions: in vivo
O=C(Nc1n[nH]c2cc(-c3ccc(O)cc3)ccc12)c1ccc(OCCN2CCOCC2)cc1 showed a Tmax of 1.33 h.

Test system: not listed separately
Test: AUC in C57BL/6J mouse at 30 mg/kg, ip
Assay type: ADME, organism-based
Conditions: in vivo
Compound O=C(Nc1n[nH]c2cc(-c3ccc(O)cc3)ccc12)c1ccc(OCCN2CCOCC2)cc1 has an AUC of 6930 ng·h/mL.

Test system: Mus musculus
Test: Anti-inflammatory activity in C57BL/6J mouse assessed as reduction in IL-6 induced serum hepcidin level at 30 mg/kg, ip pretreated for 30 mins followed by IL-6 challenge measured after 4 hrs
Assay type: functional, organism-based
Conditions: not given
In the case of O=C(Nc1n[nH]c2cc(-c3ccc(O)cc3)ccc12)c1ccc(OCCN2CCOCC2)cc1, the Activity is reported as “Active”.
